# Source: patent US5364861A, “Optical isomers of 7-[3-(1,1-dialkylmethyl-1-amino-1-pyrrolidinyl]-quinolones and naphthyridones as antibacterial agents” (Warner-Lambert Company, priority 1993, dated 1994)
# Where two headings read alike, the source gives them in different places.
# Assays:
# Ent. cloacae MA2646 = assay: in vitro antibacterial activity, microtitration dilution (MIC), Ent. cloacae MA2646; type: cell-based; conditions: Enterobacter cloacae, read-out: minimum inhibiting concentration (MIC)
# From the text: (§1) The in vitro antibacterial activity is obtained when tested by the microtitration dilution method as described in Heifetz, et al., Antimicr. Agents & Chemother. 1974;6:124, which is incorporated herein by reference.
# (§2) By use of the above methods, the following minimum inhibiting concentration values (MICs in μg/ml), PD50 's in mg/kg, no effect phototoxicity dose in mg/kg and the cytotoxicity IC50 in μg/mL were obtained for representative enantiomers of the invention and compounds of the prior art as shown in the table.
# Esch. coli Vogel [1] = assay: in vitro antibacterial activity, microtitration dilution (MIC), Esch. coli Vogel; type: cell-based; conditions: Escherichia coli, read-out: minimum inhibiting concentration (MIC)
# From the text: as §1, §2
# Klebs. pneumoniae MGH-2 = assay: in vitro antibacterial activity, microtitration dilution (MIC), Klebs. pneumoniae MGH-2; type: cell-based; conditions: Klebsiella pneumoniae, MGH2, read-out: minimum inhibiting concentration (MIC)
# From the text: as §1, §2
# Prot. rettgeri M 1771 = assay: in vitro antibacterial activity, microtitration dilution (MIC), Prot. rettgeri M 1771; type: cell-based; conditions: Providencia rettgeri, M1771, read-out: minimum inhibiting concentration (MIC)
# From the text: as §1, §2
# Pseud. aeruginosa UI-18 [2] = assay: in vitro antibacterial activity, microtitration dilution (MIC), Pseud. aeruginosa UI-18; type: cell-based; conditions: Pseudomonas aeruginosa, UI18, read-out: minimum inhibiting concentration (MIC)
# From the text: as §1, §2
# Staph. aureus H 228 = assay: in vitro antibacterial activity, microtitration dilution (MIC), Staph. aureus H 228; type: cell-based; conditions: Staphylococcus aureus, H228, read-out: minimum inhibiting concentration (MIC)
# From the text: as §1, §2
# Staph. aureus UC-76 = assay: in vitro antibacterial activity, microtitration dilution (MIC), Staph. aureus UC-76; type: cell-based; conditions: Staphylococcus aureus, UC76, read-out: minimum inhibiting concentration (MIC)
# From the text: as §1, §2
# Strep. faecalis MGH-2 = assay: in vitro antibacterial activity, microtitration dilution (MIC), Strep. faecalis MGH-2; type: cell-based; conditions: Enterococcus faecalis, MGH2, read-out: minimum inhibiting concentration (MIC)
# From the text: as §1, §2
# Strep. pneumoniae SV-1 [3] = assay: in vitro antibacterial activity, microtitration dilution (MIC), Strep. pneumoniae SV-1; type: cell-based; conditions: Streptococcus pneumoniae, SV1, read-out: minimum inhibiting concentration (MIC)
# From the text: as §1, §2
# Strep. pyogenes C-203 [4] = assay: in vitro antibacterial activity, microtitration dilution (MIC), Strep. pyogenes C-203; type: cell-based; conditions: Streptococcus pyogenes, C203, read-out: minimum inhibiting concentration (MIC)
# From the text: as §1, §2
# Esch. coli Vogel [5] = assay: median protective dose in mice given lethal systemic infection, Esch. coli; type: in vivo; conditions: Escherichia coli, single dose at time of challenge, route not given, read-out: median protective dose (PD50)
# Description: (§3) The in vivo activity is obtained when the compounds are tested according to the procedure of Miller, et al (Proc. Soc. Exp. Biol. Med. 1944;57:261). The median protective dose (PD50) was determined in mice given lethal systemic infections. Single doses of compound were given at time of challenge.
# as §2
# (§4) The in vivo data as PD50 's are reported below the line of MICs for the same compound.
# Pseud. aeruginosa UI-18 [6] = assay: median protective dose in mice given lethal systemic infection, Pseud. aeruginosa; type: in vivo; conditions: Pseudomonas aeruginosa, UI18, Pseud. aeruginosa, single dose at time of challenge, route not given, read-out: median protective dose (PD50)
# Description: as §3, §2, §4
# Strep. pneumoniae SV-1 [7] = assay: median protective dose in mice given lethal systemic infection, Strep. pneumoniae; type: in vivo; conditions: Streptococcus pneumoniae, SV1, Strep. pneumoniae, single dose at time of challenge, route not given, read-out: median protective dose (PD50)
# Description: as §3, §2, §4
# Strep. pyogenes C-203 [8] = assay: median protective dose in mice given lethal systemic infection, Strep. pyogenes; type: in vivo; conditions: Streptococcus pyogenes, C203, Strep. pyogenes, single dose at time of challenge, route not given, read-out: median protective dose (PD50)
# Description: as §3, §2, §4
# in vivo = assay: in vivo; parameters: species or system mice; conditions: mouse, po
# Description: The phototoxicity data is obtained using depilated mice. Compound was administered orally each day for four successive days, followed each day by 3 hours of […] radiation. The mice were examined for any positive signs (redness, erythema) relative to control animals. The no effect dose and the 50% effect dose were determined. By use of the above methods, the following minimum inhibiting concentration values (MICs in μg/ml), PD50 's in mg/kg, no effect phototoxicity dose in mg/kg and the cytotoxicity IC50 in μg/mL were obtained for representative enantiomers of the invention and compounds of the prior art as shown in the table.
# [9] = cytotoxicity, colony reduction of hamster V-79 cells; type: cell-based; conditions: 3 hours treatment, colonies counted after 5 days, read-out: cytotoxicity IC50 (Cytotox)
# Description: The cytotoxicity data is obtained using hamster V-79 cells. The cells were suspended in tissue culture medium and grown overnight. Cells were treated with drug for 3 hours, washed free of drug and then replated, and the colonies counted after 5 days. The concentration of drug that reduced colonies by 50% relative to control was recorded.
# as §2
smiles,measurement,setting,value
CC(C)(N)[C@@H]1CCN(c2nc3c(cc2F)c(=O)c(C(=O)O)cn3C2CC2)C1 [Example 4],MIC,Ent. cloacae MA2646,0.1 µg/mL
same,MIC,Esch. coli Vogel [1],0.05 µg/mL
same,MIC,Klebs. pneumoniae MGH-2,0.2 µg/mL
same,MIC,Prot. rettgeri M 1771,0.4 µg/mL
same,MIC,Pseud. aeruginosa UI-18 [2],1.6 µg/mL
same,MIC,Staph. aureus H 228,0.05 µg/mL
same,MIC,Staph. aureus UC-76,0.003 µg/mL
same,MIC,Strep. faecalis MGH-2,0.05 µg/mL
same,MIC,Strep. pneumoniae SV-1 [3],0.006 µg/mL
same,MIC,Strep. pyogenes C-203 [4],0.013 µg/mL
same,ED50,Esch. coli Vogel [5]; first line below the MICs,5 mg/kg
same,ED50,Esch. coli Vogel [5]; second line below the MICs,1 mg/kg
same,ED50,Pseud. aeruginosa UI-18 [6]; first line below the MICs,50 mg/kg
same,ED50,Pseud. aeruginosa UI-18 [6]; second line below the MICs,22 mg/kg
same,ED50,Strep. pneumoniae SV-1 [7]; first line below the MICs,5 mg/kg
same,ED50,Strep. pneumoniae SV-1 [7]; second line below the MICs,2 mg/kg
same,ED50,Strep. pyogenes C-203 [8]; first line below the MICs,4 mg/kg
same,ED50,Strep. pyogenes C-203 [8]; second line below the MICs,1 mg/kg
same,NOAEL,in vivo,30 mg/kg
same,CC50 at 3 h,[9],130 µg/mL
